One test addresses Mpro from SARS CoV-2 (Severe acute respiratory syndrome coronavirus 2, UniProt P0DTD1). In words: Surface plasmon resonance binding to immobilized Mpro. The conditions noted are these: dissociation constant KD, SPR, Mpro immobilized on CM-5 chip; KD = koff/kon. Background: SPR reads the build-up and loss of mass on a sensor chip optically.
The target in test [1] is T1, Mpro (Severe acute respiratory syndrome coronavirus 2, UniProt P0DTD1). In words: Universal protease activity assay with casein as substrate. Type of test: biochemical, SARS-CoV-2. The conditions noted are these: IC50, 10 μM Mpro, 150 μM casein, phosphate buffer pH 7.5, 37 °C.
Test [2] deals with T1, Mpro. To be noted: previous computational studies in our lab; cited from earlier work.
The target of test [3] is T1, Mpro. The conditions noted are these: previous computational studies in our lab; cited from earlier work. The source holds these as a separate data set.

A word on the Kd: it is the concentration at which binding is half-saturated. What is called IC50 is the midpoint of a concentration-inhibition curve.

The structures appear in SMILES notation. Several values for one entry are separate records, joined by “and”; a condition that tells them apart may be missing. Equal entries are not always repeated.

In the case of `Nc1ccn([C@H]2C[C@H](O)[C@@H](COP(=O)(O)OP(=O)(O)OP(=O)(O)OP(=O)(O)OC[C@H]3O[C@@H](n4ccc(=O)[nH]c4=O)[C@H](O)[C@@H]3O)O2)c(=O)n1` [DB04983, Denufosol], the Kd on Mpro from SARS CoV-2 is 1400 µM and 1440 µM. This compound also yielded an IC50 against Mpro [1] of 1300 µM.
On to `CSCCNc1nc(SCCC(F)(F)F)nc2c1ncn2[C@@H]1O[C@H](COP(=O)(O)OP(=O)(O)C(Cl)(Cl)P(=O)(O)O)[C@@H](O)[C@H]1O` [cangrelor], for which the dissociation constant Kd on Mpro from SARS CoV-2 is 700 µM and 640 µM. In addition, on Mpro [1], it took 900 µM to reach half-maximal inhibition (IC50). Besides, at Mpro [2], the docking score was -12.28 kcal/mol.
Consider `CC(C)c1nc(CN(C)C(=O)N[C@@H](CCN2CCOCC2)C(=O)N[C@H](CC[C@H](Cc2ccccc2)NC(=O)OCc2cncs2)Cc2ccccc2)cs1` [cobicistat], for which the dissociation constant Kd at Mpro from SARS CoV-2 is ~2.1 µM and 2.1 µM. Also, at Mpro [1], the IC50 is about 6.7 µM. Besides, the docking score on Mpro [2] is -12.31 kcal/mol. Besides, the “MM-PBSA binding free energy” value at Mpro [3] was -11.41 kcal/mol.

The record behind these values is paper PMC7754785 (ACS Omega, 2020).
